Test results: patent US5866597A, “Use of triazine compounds for the treatment of memory and learning disorders” (Glaxo Wellcome Inc., priority 1993, dated 1999)

Columns and labels:
[1] = tested on: scopolamine-induced deficit in mice; assay: Modified light-dark box memory test in mice, scopolamine-induced deficit, drug given pre-training (Table 1); format: in vivo, Male albino CD-1 mice; conditions: for Mean latency Day 1 / Mean latency Day 2: ± SEM
Procedure: (§1) Male albino CD-1 mice obtained from Charles River were used. They were housed under controlled conditions (temperature 21±2 deg. C., humidity approx. 50%, 12 hour light/dark cycle, food and water ad lib) for one week before use. On the day before test, the mice were housed in groups of six in polythene boxes in the laboratory and marked for identification. Food and water were supplied ad lib. On the test day, animals were weighed and then dosed either 30 minutes before test (piracetam, ondansetron) one hour before test (compound A) or immediately after test.
All drugs were dissolved or suspended in 0.25% (w/v) aqueous celacol, and administered orally (by gavage), i.p. or s.c. The dose volume was 10 ml/kg for all routes.
(§2) The apparatus consisted of two boxes with an opening 90 mm×60 mm at floor level between them. A plastic door was used to close the opening when required. The smaller box (290 mm×120 mm×120 mm high) was made of opaque plastics, open at the top to allow illumination by normal laboratory lighting. The larger box (305 mm square×280 mm high) was enclosed apart from the single opening.
(§3) This consisted of training, with retest 24 hours later. During training, animals were placed individually in the open box facing away from the end with the opening. After a period of exploration, they usually entered the dark box and the latency to entry in seconds was noted. The door to the dark box was closed, and after 30 seconds had elapsed, the animal was removed gently and returned to the holding box. Twenty-four hours later, an identical procedure was used, except that the session ended as soon as the animal had entered the dark box. The latency was again noted. During the interval, the animals were not handled, and were disturbed as little as possible. Each animal was used once only.
(§4) Test drugs or control fluids were given before or immediately after the training session.
Group comparisons were made between latencies to enter the dark compartment on the first and second occasions. For both training and retest occasions, comparisons were made between vehicle and treatment groups. […] The difference between latencies on the two occasions is presented as % decrease on Day 2 compared with Day 1.
(§5) The mean latency to enter the dark box±standard error of the mean was calculated from a group of 12 animals. For a given treatment, figures in the columns labelled `Day 1` and `Day 2` show the mean latencies taken from the same group of animals. The difference between data obtained on the two days is illustrated by showing the % decrease, and the data compared using the Mann-Whitney U-test; NS indicates a p value>0.1.

[2] = tested on: scopolamine-induced deficit in mice; assay: Modified light-dark box memory test in mice, scopolamine-induced deficit, drug given immediately post-training (Table 2); format: in vivo, Male albino CD-1 mice; conditions: for Mean latency Day 1 / Mean latency Day 2: ± SEM
Procedure: as §1
[…] The dose volume was 10 ml/kg for all routes.
as §2, §3, §4
Group comparisons were made between latencies to enter the dark compartment on the first and second occasions. For both training and retest occasions, comparisons were made between vehicle and treatment groups. The distribution of latencies was skewed on both learning and retest trials (data not shown), so the non-parametric Mann-Whitney U-test was used. The difference between latencies on the two occasions is presented as % decrease on Day 2 compared with Day 1.
as §5

[3] = tested on: scopolamine-induced deficit in rats; assay: Light-dark box memory test in rats, scopolamine-induced deficit, single dose pre-training (Tables 3 and 4); format: in vivo, Male Wistar rats; conditions: for Mean latency Day 1 / Mean latency Day 2: ± SEM
Procedure: Male Wistar rats obtained from Charles River were used. They were housed under controlled conditions (temperature 21±2 deg. C., humidity approx. 50%, 12 hour light/dark cycle, food and water ad lib) for one week before use. On the day before test the rats were permanently housed in groups of six. Food and water were supplied ad lib. On the test day, animals were weighed and then dosed either 30 minutes before test (midazolam), one hour before test (compound A) or immediately after test.
All drugs were dissolved or suspended in 0.25% (w/v) aqueous celacol, and administered orally (by gavage), i.p. or s.c. The dose volume was 5 ml/kg for all routes.
An identical apparatus to that described in Example 1 was used, except that the smaller box measured 370 mm×260 mm×190 mm.
This consisted of training as described for mice under section (d) of Example 1.
as §4
This was as described under section (e) of Example 1.

[4] = tested on: scopolamine-induced pupillary dilatation in rats; assay: Pupil diameter measurement in rats (Table 6); format: in vivo, Male Wistar rats; conditions: for Mean pupil diameter: ± SEM
Procedure: (§6) 15 minutes before observation. Under these conditions, which were identical to those used in the learning experiments described in Example 2, changes in salivation and pupil diameter were measured. Salivation was measured by placing a piece of folded filter paper in the rat's mouth and measuring the diameter of the blot in mm after 1 minute. Pupil diameter was measured using a magnifying glass and graticule under normal lighting conditions. For both measures, comparisons were made between control and drug-treated groups using a Student's T-test on independent samples.
(§7) Groups of 6 animals were used.

[5] = tested on: scopolamine-induced dry mouth in rats; assay: Salivation measurement in rats (Table 6); format: in vivo, Male Wistar rats; conditions: for Mean salivation (blot diameter): ± SEM
Procedure: as §6, §7

[6] = tested on: release of excitatory amino acids, principally glutamate; conditions: at anticonvulsant brain concentrations; cited from earlier work
[7] = saline s.c. + compound A 40 mg/kg p.o., 1 h pre-training
[8] = scopolamine 1 mg/kg s.c. + compound A 10 mg/kg p.o.
[9] = scopolamine 1 mg/kg s.c. + compound A 20 mg/kg p.o.
[10] = scopolamine 1 mg/kg s.c. + compound A 40 mg/kg p.o.
[11] = saline s.c. + compound A 20 mg/kg i.v. post-training
[12] = saline s.c. + compound A 40 mg/kg p.o. post-training
[13] = scopolamine 1 mg/kg s.c. + compound A 20 mg/kg i.v. post-training
[14] = scopolamine 1 mg/kg s.c. + compound A 40 mg/kg p.o. post-training
[15] = saline s.c. + compound A 40 mg/kg p.o.
[16] = scopolamine 0.1 mg/kg s.c. + compound A 10 mg/kg p.o.
[17] = scopolamine 0.1 mg/kg s.c. + compound A 20 mg/kg p.o.
[18] = scopolamine 0.1 mg/kg s.c. + compound A 40 mg/kg p.o.
[19] = compound A 10 mg/kg p.o. + saline s.c.
[20] = compound A 40 mg/kg p.o. + saline s.c.
[21] = compound A 40 mg/kg p.o. + scopolamine 0.1 mg/kg s.c.
[22] = compound A pretreatment, p>0.05 vs vehicle

## Nc1nnc(-c2cccc(Cl)c2Cl)c(N)n1 [Compound A, 3,5-Diamino-6-(2,3-dichlorophenyl)-1,2,4-triazine]
[1]; saline s.c. + compound A 40 mg/kg p.o., 1 h pre-training, p <0.01
  Difference between days, % Decrease: 45%
[1]; [7]
  Mean latency Day 1: 23.3 ± 3.4 s
  Mean latency Day 2: 12.8 ± 1.2 s
[1]; scopolamine 1 mg/kg s.c. + compound A 10 mg/kg p.o., p NS
  Difference between days, % Decrease: 13%
[1]; [8]
  Mean latency Day 1: 19.6 ± 1.7 s
  Mean latency Day 2: 17.1 ± 2.2 s
[1]; scopolamine 1 mg/kg s.c. + compound A 20 mg/kg p.o., p <0.05
  Difference between days, % Decrease: 28%
[1]; [9]
  Mean latency Day 1: 18.6 ± 2.4 s
  Mean latency Day 2: 13.3 ± 1.5 s
[1]; scopolamine 1 mg/kg s.c. + compound A 40 mg/kg p.o., p <0.001
  Difference between days, % Decrease: 56%
[1]; [10]
  Mean latency Day 1: 22.1 ± 3.2 s
  Mean latency Day 2: 9.7 ± 1.2 s
[2]; compound A 20 mg/kg i.v. post-training
  Reversal of scopolamine-induced deficit: no reversal of the scopolamine-induced deficit
[2]; compound A 40 mg/kg p.o. post-training
  Reversal of scopolamine-induced deficit: no reversal of the scopolamine-induced deficit
[2]; saline s.c. + compound A 20 mg/kg i.v. post-training, p (0.09)
  Difference between days, % Decrease: 26%
[2]; [11]
  Mean latency Day 1: 19.9 ± 2.7 s
  Mean latency Day 2: 14.8 ± 2.1 s
[2]; saline s.c. + compound A 40 mg/kg p.o. post-training, p <0.05
  Difference between days, % Decrease: 30%
[2]; [12]
  Mean latency Day 1: 20.0 ± 2.3 s
  Mean latency Day 2: 13.9 ± 1.5 s
[2]; scopolamine 1 mg/kg s.c. + compound A 20 mg/kg i.v. post-training, p NS
  Difference between days, % Decrease: -1%
[2]; [13]
  Mean latency Day 1: 20.0 ± 2.3 s
  Mean latency Day 2: 20.3 ± 2.5 s
[2]; scopolamine 1 mg/kg s.c. + compound A 40 mg/kg p.o. post-training, p NS
  Difference between days, % Decrease: -23%
[2]; [14]
  Mean latency Day 1: 18.5 ± 1.8 s
  Mean latency Day 2: 22.7 ± 2.6 s
[3]; saline s.c. + compound A 40 mg/kg p.o., p <0.001
  Difference between days, % Decrease: 50%
[3]; [15]
  Mean latency Day 1: 38.3 ± 3.8 s
  Mean latency Day 2: 19.3 ± 3.0 s
[3]; scopolamine 0.1 mg/kg s.c. + compound A 10 mg/kg p.o., p NS
  Difference between days, % Decrease: 0%
[3]; [16]
  Mean latency Day 1: 40.8 ± 4.8 s
  Mean latency Day 2: 40.8 ± 4.6 s
[3]; scopolamine 0.1 mg/kg s.c. + compound A 20 mg/kg p.o., p NS*
  Difference between days, % Decrease: 16%
[3]; [17]
  Mean latency Day 1: 37.7 ± 4.4 s
  Mean latency Day 2: 31.7 ± 3.9 s
[3]; scopolamine 0.1 mg/kg s.c. + compound A 40 mg/kg p.o., p <0.01
  Difference between days, % Decrease: 45%
[3]; [18]
  Mean latency Day 1: 38.4 ± 4.1 s
  Mean latency Day 2: 21.1 ± 3.6 s
[4]; [19]
  Mean pupil diameter: 7.00 ± 0.58 mm × 10
[4]; [20]
  Mean pupil diameter: 7.75 ± 0.85 mm × 10
[4]; [21]
  Mean pupil diameter: 23.0 ± 1.78 mm × 10
[4]; [22]
  Influence on scopolamine-induced change in pupil diameter: no influence on the scopolamine-induced changes
[5]; [19]
  Mean salivation (blot diameter): 8.75 ± 1.11 mm
[5]; [20]
  Mean salivation (blot diameter): 8.25 ± 0.63 mm
[5]; [21]
  Mean salivation (blot diameter): 2.13 ± 0.63 mm
[5]; [22]
  Influence on scopolamine-induced change in salivation: no influence on the scopolamine-induced changes
[6]
  Inhibition of release of excitatory amino acids, principally glutamate: inhibit the release of excitatory amino acids, principally glutamate
